Measured values taken from patent US20250051283A1, “THERAPEUTIC COMPOUNDS AND METHODS” (priority 2023, published 2025).

Columns and labels:
[1] = Cytotoxicity by neutral red uptake in R.D. cells, no viral infection; assay type: cell-based, Human; details: human, R.D. (rhabdomyosarcoma, ATCC CCL-136) cells, uninfected
Experimental: (§1) Cell lines and viruses. Human rhabdomyosarcoma (R.D., ATCC, CCL-136) cells were maintained at 37° C. in a 5% CO2 atmosphere and cultured in Dulbecco's modified Eagle's medium (DMEM) supplemented with 10% fetal bovine serum (FBS) and 1% penicillin-streptomycin antibiotics. The following reagents were obtained through BEI Resources, NIAID, NIH: Human Enterovirus D68, US/MO/14-18949, NR-49130; Enterovirus D68, US/MO/14-18947, NR-49129; Enterovirus D68, US/IL/14-18952, NR-49131; Enterovirus D68, US/KY/14-18953, NR-49132; Enterovirus D68, US/IL/14-18956, NR-49133.
(§2) Antiviral assays. Cells for antiviral assays were seeded and grown overnight at 37° C. in a 5% CO2 atmosphere for ˜90% confluency the next day. For all infections, cells were washed with PBS containing magnesium and calcium and infected with virus diluted in DMEM with 2% FBS and 30 mM MgCl2. Viruses were incubated for at least 1 h at 33° C. in a 5% CO2 atmosphere, followed by the addition of compound as well as 1% penicillin-streptomycin. For CC50 measurements, the experiment was performed similarly but excluded viral infection. For cytopathic effect (CPE) assays, cells were stained with 66 µg/mL neutral red for 2 h and neutral red uptake was measured at absorbance 540 nm using a Multiskan FC Microplate Photometer (ThermoFisher Scientific). The EC50 and CC50 values were calculated from best-fit dose response curves using GraphPad Prism. For plaque reduction assays, an 1.2% avicel microcrystalline cellulose (FMC BioPolymer, Philadelphia, PA) overlay was used and cells were stained after 3 days as previously described^26.

EV-D68 2A^pro = EV-D68 2A^pro (Enterovirus D68, UniProt A0A097BW19); assay: FRET-based enzymatic assay of EV-D68 2Apro inhibition; assay type: biochemical
Experimental: (§3) Protein expression and purification. EV-D68 2A^pro gene from strain US/KY/14-18953 was ordered from Genscript (Piscataway, NJ) in pET28b(+) vector with E. coli codon optimization. 2A^pro gene was subcloned into pE-SUMOstar vector according to the manufacturers protocol. Plasmid encoding WT-2A^pro was transformed into BL21(DE3) competent E. coli cells, and a single colony was picked and used to inoculate 10 mL of L.B. grown supplemented with 50 μg/mL kanamycin at 37° C. at 250 rpm. The 10 mL inoculant was added to 1 L of L.B. with 50 μg/mL kanamycin and grown to an OD600 of 0.8-1.0, cooled to 18° C., then induced using 0.5 mM IPTG. Induced cultures were incubated at 18° C. for an additional 24 h, then harvested and resuspended in lysis buffer (25 mM Tris (pH 7.5); 750 mM NaCl, 2 mM DTT with 0.5 mg/mL lysozyme, 0.5 mM PMSF and 0.02 mg/mL DNase I) and lysed with alternating sonication and French press cycles. The cell debris were removed by centrifugation at 12,000×g for 45 min […]. The supernatant was incubated with Ni-NTA resin for over 2 h at 4° C. on a rotator. The Ni-NTA resin was thoroughly washed with 50 mM imidazole in wash buffer (50 mM Tris (pH 7.5), 150 mM NaCl, and 2 mM DTT); for the SUMO-tagged protein, the protein was directly eluted with 300 mM imidazole; for the nontagged 2A^pro Ni-NTA resin was treated with SUMO Protease 1 to remove the SUMO tag, then 2A^pro was washed off from the column with 10 mM imidazole in wash buffer. The imidazole was removed via dialysis or 10 K molecular weight cut-off centrifugal concentrator spin column. The purity of the protein was confirmed with SDS-PAGE. The protein concentration was determined by classic BCA assay using bovine serum albumin as a standard. EV-D68 3C^pro in pET28b(+) vector was expressed as previously described^10.
(§4) Peptide synthesis. The FRET substrate of EV-D68 2A^pro, Dabcyl-KIRIVNT/GPGFGGE-Edans, was synthesized using the Fmoc solid phase synthesis strategy.
(§5) Enzymatic assays. The reaction buffer contains 50 mM Tris (pH7.0), 150 mM NaCl, 10% Glycerol, and 2 mM DTT, and the reaction was carried out at 30° C. in Cytation 5 imaging reader (Fisher Scientific) with EX360/40-EM460/40 filter. Reactions were monitored every 90 sec. […] The reaction was initiated by adding 20 μM of FRET substrate, and the reaction was monitored for 2 hours and initial velocity was calculated for the first 30 minutes via linear regression.

EV-D68 US/MO/14-18947 [2] = assay: Secondary plaque reduction assay with EV-D68 US/MO/14-18947; assay type: cell-based, Enterovirus D68
Experimental: as §1
as §2, with “For CC50 measurements, the experiment was performed similarly but excluded viral infection.” left out, “For plaque reduction assays, an 1.2% avicel microcrystalline cellulose (FMC BioPolymer, Philadelphia, PA) overlay was used and cells were stained after 3 days as previously described^26.” left out

EV-D68 US/MO/14-18947 [3] = assay: CPE assay (neutral red) with EV-D68 US/MO/14-18947 in R.D. cells; assay type: cell-based, Enterovirus D68; details: CPE assay, EV-D68 US/MO/14-18947 in R.D. cells
In short: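 R.D. cells infected (DMEM, 2% FBS, 30 mM MgCl2) for ≥1 h at 33° C before compound addition; CPE read by neutral red uptake ([…], 2 h, A540), plaque reduction under 1.2% avicel overlay, stained after 3 days. EC50 and CC50 (uninfected cells) from dose-response curve fits.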

[4] = target: T1, EV-D68 2A^pro (WT-2A^pro, strain US/KY/14-18953, expressed in E. coli BL21(DE3) from pE-SUMOstar vector) (enterovirus D68, UniProt A0A097BW19); assay: FRET-based enzymatic assay of EV-D68 2A^pro inhibition (FRET substrate Dabcyl-KIRIVNT/GPGFGGE-Edans); assay type: biochemical
T1 construct: E. coli-codon-optimised gene, pE-SUMOstar, His-SUMO tag (removed with SUMO protease for nontagged form), E. coli BL21(DE3), Ni-NTA; 7JRE is the C107A mutant
Experimental: (§6) FIG. 4. […] Key structural variations compared to telaprevir were highlighted in red. Enzymatic inhibitory activity IC50 value was determined in the FRET-based assay. Antiviral EC50 value was determined in the CPE assay with EV-D68 US/MO/14-18947 in R.D. cells. Cytotoxicity CC50 value was determined using the neutral red uptake method in R.D. cells. The results are the mean±standard deviation of two independent experiments with three repeats in each experiment.
as §6, with “5.” for “4.”, “Jun8861” for “telaprevir”
as §3, §4, §5

[5] = system: EV-D68 US/IL/14-18952 (clade B2); assay: Broad-spectrum antiviral activity (Table 1), US/IL/14-18952; assay type: cell-based, Enterovirus D68; details: Enterovirus D, EVD68; EV-D68 US/IL/14-18952 (clade B2); read-out: EC50
Experimental: as §1
as §2, with “For CC50 measurements, the experiment was performed similarly but excluded viral infection.” left out, “For plaque reduction assays, an 1.2% avicel microcrystalline cellulose (FMC BioPolymer, Philadelphia, PA) overlay was used and cells were stained after 3 days as previously described^26.” left out

[6] = system: EV-D68 US/MO/14-18947 (clade B1); assay: Broad-spectrum antiviral activity (Table 1), US/MO/14-18947; assay type: cell-based; details: Enterovirus D, EVD68
Experimental: as §1
as §2, with “For CC50 measurements, the experiment was performed similarly but excluded viral infection.” left out, “For plaque reduction assays, an 1.2% avicel microcrystalline cellulose (FMC BioPolymer, Philadelphia, PA) overlay was used and cells were stained after 3 days as previously described^26.” left out

[7] = system: five strains of EV-D68 (B1, B2, and D clades); assay: Broad-spectrum antiviral activity, summary over five EV-D68 strains; assay type: cell-based, Enterovirus D68
Experimental: as §1
as §2, with “For CC50 measurements, the experiment was performed similarly but excluded viral infection.” left out, “For plaque reduction assays, an 1.2% avicel microcrystalline cellulose (FMC BioPolymer, Philadelphia, PA) overlay was used and cells were stained after 3 days as previously described^26.” left out

Structure (SMILES)	CC50 [1] [µM]	enzymatic inhibition, in words, relative to the named comparator (EV-D68 2A^pro)	EC50 (EV-D68 US/MO/14-18947 [2]) [nM]	antiviral activity, in words, relative to the named comparator (EV-D68 US/MO/14-18947 [3])	IC50 [4] [nM]	EC50 [5] [nM]	EC50 [6] [nM]	EC50 ([7]; Enterovirus D, EVD68, read-out: EC50 values over all five strains) [nM]	fold improvement of EC50 compared to telaprevir ([7]; five EV-D68 strains, versus telaprevir)
CC(C)(C)C(NC(=O)CC12CC3CC(CC(C3)C1)C2)C(=O)N1CC2CCCC2C1C(=O)NC(Cc1ccccc1)C(=O)C(=O)NC1CC1 [Jun11385, (1S,3aR,6aS)-2-((S)-2-(2-((3S,5S,7S)-adamantan-1-yl)acetamido)-3,3-dimethylbutanoyl)-N—((S)-4-(cyclopropylamino)-3,4-dioxo-1-phenylbutan-2-yl)octahydrocyclopenta[c]pyrrole-1-carboxamide]	17.4								
CCC(C)[C@H](NC(=O)[C@@H]1[C@H]2CCC[C@H]2CN1C(=O)[C@@H](NC(=O)CC12CC3CC(CC(C3)C1)C2)C(C)(C)C)C(=O)C(=O)NC1CC1 (stereo partly drawn) [Jun11756, (1S,3aR,6aS)-2-((S)-2-(2-((3S,5S,7S)-adamantan-1-yl)acetamido)-3,3-dimethylbutanoyl)-N-((3S,4S)-1-(cyclopropylamino)-4-methyl-1,2-dioxohexan-3-yl)octahydrocyclopenta[c]pyrrole-1-carboxamide]		comparable enzymatic inhibition and antiviral activity as Jun8861	13.5	comparable enzymatic inhibition and antiviral activity as Jun8861					
CCC[C@H](NC(=O)[C@@H]1[C@H]2CCC[C@H]2CN1C(=O)[C@@H](NC(=O)OCc1ccccc1)C(C)(C)C)C(=O)C(=O)NC1CC1 [Jun7426, Benzyl ((S)-1-((1S,3aR,6aS)-1-(((S)-1-(cyclopropylamino)-1,2-dioxohexan-3-yl)carbamoyl)hexahydrocyclopenta[c]pyrrol-2(1H)-yl)-3,3-dimethyl-1-oxobutan-2-yl)carbamate]		reduced enzymatic inhibition and antiviral activity compared to telaprevir		reduced enzymatic inhibition and antiviral activity compared to telaprevir	760 ± 100				
CC(C)(C)C(NC(=O)CC12CC3CC(CC(C3)C1)C2)C(=O)N1CC2CCCC2C1C(=O)NC(C(=O)C(=O)NC1CC1)C1CCCCC1 [Jun11762, (1S,3aR,6aS)-2-((S)-2-(2-((3S,5S,7S)-adamantan-1-yl)acetamido)-3,3-dimethylbutanoyl)-N—((S)-1-cyclohexyl-3-(cyclopropylamino)-2,3-dioxopropyl)octahydrocyclopenta[c]pyrrole-1-carboxamide]	> 150	comparable enzymatic inhibition and antiviral activity as Jun8861		comparable enzymatic inhibition and antiviral activity as Jun8861		269 ± 21.9	43 ± 3.3	43 to 269	3.1-4.6 fold
